Measured values published in patent US6737383B1, “Herbicidal oxadiazolidines” (priority 1999, dated 2004).

Key:
velvetleaf = test: Test B pre/postemergence velvetleaf; type: in vivo, Abutilon theophrasti
Method in brief: (§1)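 Test chemicals in a non-phytotoxic solvent mixture with surfactant were sprayed preemergence onto planted seeds and postemergence onto plants 2 to 18 cm tall (1- to 4-leaf stage). After twelve to sixteen days in a greenhouse, injury was visually rated against untreated controls from 0 (no effect) to 10 (complete control).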

giant foxtail = test: Test B pre/postemergence giant foxtail; type: in vivo, Setaria faberii
Method in brief: as §1

rice = test: Test B flood test rice; type: in vivo, Oryza sativa
Method in brief: (§2)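 Each value is a visual injury score relative to controls, with 10 meaning complete control and 0 no effect. Evaluation took place twelve to sixteen days after the 2-leaf-stage plants were treated and kept in the greenhouse.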

bamyardgrass = test: Test B flood test barnyardgrass; type: in vivo, Echinochloa crus-galli
Method in brief: as §2

duck salad = test: Test B flood test duck salad; type: in vivo, Heteranthera limosa
Method in brief: as §2

wild oat = test: Test B pre/postemergence wild oat; type: in vivo, Avena fatua
Method in brief: as §1

smallflower flatsedge = test: Test B flood test smallflower flatsedge; type: in vivo, Cyperus difformis
Method in brief: as §2

purple nutsedge = test: Test B pre/postemergence purple nutsedge; type: in vivo, Cyperus rotundus
Method in brief: as §1

pigweed = test: Test B pre/postemergence pigweed; type: in vivo, Amaranthus retroflexus
Method in brief: as §1

blackgrass = test: Test B pre/postemergence blackgrass; type: in vivo, Alopecurus myosuroides
Method in brief: as §1

cocklebur = test: Test B pre/postemergence cocklebur; type: in vivo, Xanthium strumarium
Method in brief: as §1

soybean = test: Test B pre/postemergence soybean; type: in vivo, Glycine max
Method in brief: as §1

sugar beet = test: Test B pre/postemergence sugar beet; type: in vivo, Beta vulgaris
Method in brief: as §1

rape = test: Test B pre/postemergence rape; type: in vivo, Brassica napus
Method in brief: as §1

wheat = test: Test B pre/postemergence wheat; type: in vivo, Triticum aestivum
Method in brief: as §1

morningglory = test: Test B pre/postemergence morningglory; type: in vivo, Ipomoea hederacea
Method in brief: as §1

[1] = Postemergence, Rate 62 g/ha, scale 0 to 10, 0 is no effect, 10 is complete control
[2] = Postemergence, Rate 250 g/ha, scale 0 to 10, 0 no effect, 10 complete control
[3] = Preemergence, Rate 62 g/ha, scale 0 to 10 (0 no effect, 10 complete control)
[4] = Preemergence, Rate 125 g/ha, scale 0 to 10 (0 no effect, 10 complete control)
[5] = Preemergence, Rate 250 g/ha, scale of 0 to 10 where 0 is no effect and 10 is complete control
[6] = Preemergence, Rate 500 g/ha, scale 0 (no effect) to 10 (complete control)
[7] = Rate 125 g/ha, Postemergence, scale 0 to 10, 0 no effect, 10 complete control
[8] = Rate 500 g/ha, Postemergence, scale 0 to 10, 0 no effect, 10 complete control
[9] = Rate 125 g/ha, Postemergence section (flood test species), scale 0 to 10, 0 no effect, 10 complete control
[10] = Rate 500 g/ha, listed under Postemergence (flood test species), scale 0 to 10, 0 no effect, 10 complete control
[11] = flood test, listed under Postemergence, Rate 250 g/ha, scale 0 to 10, 0 no effect, 10 complete control

COc1cccc(C)c1-n1c(=O)on(C(=O)N(c2ccccc2)C(C)C)c1=O [Compound 73]
10: Giant foxtail plant response rating (giant foxtail; [6])
7: Plant response rating, Giant foxtail (giant foxtail; [4])
9: Plant response rating, Giant foxtail (giant foxtail; [5])
6: Wild oats plant response rating (wild oat; [8])
4: Velvetleaf plant response rating (velvetleaf; [2]) | Giant foxtail plant response rating (giant foxtail; [8]) | Morningglory plant response rating (morningglory; [2]) | Morningglory plant response rating (morningglory; [8])
0: Velvetleaf plant response rating (velvetleaf; [1]) | Velvetleaf plant response rating (velvetleaf; [3]) | Plant response rating, Velvetleaf (velvetleaf; [4]) | Plant response rating, Velvetleaf (velvetleaf; [5]) | Velvetleaf plant response rating (velvetleaf; [6]) | Giant foxtail plant response rating (giant foxtail; [1]) | Giant foxtail plant response rating (giant foxtail; [7]) | Rice plant response rating (rice; [1]) | Rice plant response rating (rice; [9]) | Rice plant response rating (rice; [10]) | Rice plant response rating (rice; [11]) | Barnyardgrass plant response rating (bamyardgrass; [1]) | Barnyardgrass plant response rating (bamyardgrass; [9]) | Barnyardgrass plant response rating (bamyardgrass; [10]) | Barnyardgrass plant response rating (bamyardgrass; [11]) | Ducksalad plant response rating (duck salad; [1]) | Ducksalad plant response rating (duck salad; [9]) | Ducksalad plant response rating (duck salad; [10]) | Ducksalad plant response rating (duck salad; [11]) | Wild oats plant response rating (wild oat; [1]) | Wild oats plant response rating (wild oat; [3]) | Plant response rating, Wild oats (wild oat; [4]) | Plant response rating, Wild oats (wild oat; [5]) | Wild oats plant response rating (wild oat; [6]) | Wild oats plant response rating (wild oat; [7]) | S. Flatsedge plant response rating (smallflower flatsedge; [1]) | S. Flatsedge plant response rating (smallflower flatsedge; [9]) | S. Flatsedge plant response rating (smallflower flatsedge; [10]) | S. Flatsedge plant response rating (smallflower flatsedge; [11]) | Nutsedge plant response rating (purple nutsedge; [1]) | Nutsedge plant response rating (purple nutsedge; [2]) | Nutsedge plant response rating (purple nutsedge; [3]) | Plant response rating, Nutsedge (purple nutsedge; [4]) | Plant response rating, Nutsedge (purple nutsedge; [5]) | Nutsedge plant response rating (purple nutsedge; [6]) | Nutsedge plant response rating (purple nutsedge; [7]) | Nutsedge plant response rating (purple nutsedge; [8]) | Redroot pigweed plant response rating (pigweed; [1]) | Redroot pigweed plant response rating (pigweed; [2]) | Redroot pigweed plant response rating (pigweed; [3]) | Plant response rating, Redroot pigweed (pigweed; [4]) | Plant response rating, Redroot pigweed (pigweed; [5]) | Redroot pigweed plant response rating (pigweed; [6]) | Redroot pigweed plant response rating (pigweed; [7]) | Redroot pigweed plant response rating (pigweed; [8]) | Blackgrass plant response rating (blackgrass; [1]) | Blackgrass plant response rating (blackgrass; [2]) | Blackgrass plant response rating (blackgrass; [3]) | Plant response rating, Blackgrass (blackgrass; [4]) | Plant response rating, Blackgrass (blackgrass; [5]) | Blackgrass plant response rating (blackgrass; [6]) | Blackgrass plant response rating (blackgrass; [7]) | Cocklebur plant response rating (cocklebur; [1]) | Cocklebur plant response rating (cocklebur; [2]) | Cocklebur plant response rating (cocklebur; [3]) | Plant response rating, Cocklebur (cocklebur; [4]) | Plant response rating, Cocklebur (cocklebur; [5]) | Cocklebur plant response rating (cocklebur; [6]) | Cocklebur plant response rating (cocklebur; [7]) | Soybean plant response rating (soybean; [1]) | Soybean plant response rating (soybean; [3]) | Plant response rating, Soybean (soybean; [4]) | Plant response rating, Soybean (soybean; [5]) | Soybean plant response rating (soybean; [6]) | Soybean plant response rating (soybean; [7]) | Sugarbeets plant response rating (sugar beet; [1]) | Sugarbeets plant response rating (sugar beet; [2]) | Sugarbeets plant response rating (sugar beet; [3]) | Plant response rating, Sugarbeets (sugar beet; [4]) | Plant response rating, Sugarbeets (sugar beet; [5]) | Sugarbeets plant response rating (sugar beet; [6]) | Sugarbeets plant response rating (sugar beet; [7]) | Sugarbeets plant response rating (sugar beet; [8]) | Rape plant response rating (rape; [1]) | Rape plant response rating (rape; [2]) | Rape plant response rating (rape; [3]) | Plant response rating, Rape (rape; [4]) | Plant response rating, Rape (rape; [5]) | Rape plant response rating (rape; [6]) | Rape plant response rating (rape; [7]) | Wheat plant response rating (wheat; [1]) | Wheat plant response rating (wheat; [2]) | Wheat plant response rating (wheat; [3]) | Plant response rating, Wheat (wheat; [4]) | Plant response rating, Wheat (wheat; [5]) | Wheat plant response rating (wheat; [6]) | Wheat plant response rating (wheat; [7]) | Morningglory plant response rating (morningglory; [3]) | Plant response rating, Morningglory (morningglory; [4]) | Plant response rating, Morningglory (morningglory; [5]) | Morningglory plant response rating (morningglory; [6])
5: Velvetleaf plant response rating (velvetleaf; [8])
2: Giant foxtail plant response rating (giant foxtail; [2]) | Giant foxtail plant response rating (giant foxtail; [3]) | Wild oats plant response rating (wild oat; [2]) | Blackgrass plant response rating (blackgrass; [8]) | Cocklebur plant response rating (cocklebur; [8]) | Wheat plant response rating (wheat; [8])
3: Velvetleaf plant response rating (velvetleaf; [7]) | Soybean plant response rating (soybean; [2]) | Soybean plant response rating (soybean; [8]) | Morningglory plant response rating (morningglory; [1]) | Morningglory plant response rating (morningglory; [7])
